Reference: patent publication US20200024278A1, “COMPOSITION COMPRISING ANTIBIOTIC COMPOUND AND AN HETEROCYCLIC COMPOUND AND THEIR USE IN PREVENTING OR TREATING BACTERIAL INFECTIONS” (MUTABILIS, priority 2016, published 2020)

How the values were obtained:
Test in all cases: MIC, broth microdilution (CLSI), substance alone or ATB combined with compound at 4 or 8 μg/mL
ECO 190317 = type: cell-based, E. coli; details: ECO 190317; for MIC ATB combined with Example 13 @8 μg/ml: with Example 13 at 8 μg/ml
Experimental: (§1) Compounds of the present invention were assessed against genotyped bacterial strains alone or in combination with an antibacterial. In the assays, MICs of said compounds or combination of antibiotics with fixed concentrations of said compounds (4 or 8 μg/mL) were determined by the broth microdilution method according to the Clinical Laboratory Standards Institute (CLSI-M7-A7). Briefly, compounds alone according to the invention were prepared in DMSO and spotted (2 μL each) on sterile polystyrene plates (Corning, 3788). Combinations of compounds and antibiotics dilutions were prepared in DMSO and spotted (1 μL each) on sterile polystyrene plates (Corning, 3788). Log phase bacterial suspensions were adjusted to a final density of 5·10^5 CFU/mL in cation-adjusted Mueller-Hinton broth (ca-MHB; Becton-Dickinson and Company) and added to each well (98 μL). Assays including Fosfomycin were supplemented with 25 μg/ml of Glucose-6-phosphate. Microplates were incubated for 16-20 h at 35° C. in ambient air. The MIC of the compounds was defined as the lowest concentration of said compounds that prevented bacterial growth as read by visual inspection. The MIC of ATB at each compound concentration was defined as the lowest concentration of ATB that prevented bacterial growth as read by visual inspection.

ECO UFR39 = type: cell-based, E. coli; details: ECO UFR39; for MIC ATB combined with Example 13 @8 μg/ml: with Example 13 at 8 μg/ml
Experimental: as §1

PAE UFR90 = type: cell-based, P. aeruginosa; details: PAE UFR90; for MIC ATB combined with Example 12 @8 μg/ml: with Example 12 at 8 μg/ml; for MIC ATB combined with Example 14 @8 μg/ml: with Example 14 at 8 μg/ml; for MIC ATB combined with Example 16 @4 μg/ml: with Example 16 at 4 μg/ml
Experimental: as §1

PAE UFR48 = type: cell-based, P. aeruginosa; details: PAE UFR48; for MIC ATB combined with Example 12 @8 μg/ml: with Example 12 at 8 μg/ml; for MIC ATB combined with Example 16 @4 μg/ml: with Example 16 at 4 μg/ml
Experimental: as §1

PAE 105250 = type: cell-based, P. aeruginosa; details: PAE 105250; for MIC ATB combined with Example 12 @8 μg/ml: with Example 12 at 8 μg/ml; for MIC ATB combined with Example 14 @8 μg/ml: with Example 14 at 8 μg/ml; for MIC ATB combined with Example 16 @4 μg/ml: with Example 16 at 4 μg/ml
Experimental: as §1

SPN 49619 = type: cell-based, S. pneumoniae; details: SPN 49619; for MIC ATB combined with Example 7 @8 μgml: with Example 7 at 8 μg/ml; for MIC ATB combined with Example 11 @8 μg/ml: with Example 11 at 8 μg/ml; for MIC ATB combined with Example 13 @8 μg/ml: with Example 13 at 8 μg/ml; for MIC ATB combined with Example 15 @4 μgml: with Example 15 at 4 μg/ml
Experimental: as §1

SAU 29213 = type: cell-based, S. aureus; details: SAU 29213; for MIC ATB alone: antibiotic alone; for MIC ATB combined with Example 7 @8 μgml: with Example 7 at 8 μg/ml; for MIC ATB combined with Example 11 @8 μg/ml: with Example 11 at 8 μg/ml; for MIC ATB combined with Example 13 @8 μg/ml: with Example 13 at 8 μg/ml
Experimental: as §1

ECL P99 = type: cell-based, E. cloacae; details: ECL P99
Experimental: as §1

CO/N=C(\C(=O)N[C@@H]1C(=O)N2C(C(=O)O)=C(CSc3nc(=O)c(O)nn3C)CS[C@H]12)c1csc(N)n1 [CTR]
MIC ATB combined with Example 1 @8 μg/ml (ECO 190317; with Example 1 @8 μg/ml): <0.031 µg/mL
MIC ATB combined with Example 1 @8 μg/ml (ECO 190317; with Example 1 at 8 μg/ml): <0.031 µg/mL
MIC ATB combined with Example 13 @8 μg/ml (ECO 190317): <0.031 µg/mL
MIC ATB combined with Example 13 @8 μg/ml (ECO UFR39): <0.031 µg/mL
MIC ATB combined with Example 1 @8 μg/ml (PAE UFR90; with Example 1 @8 μg/ml): <0.031 µg/mL
MIC ATB combined with Example 1 @8 μg/ml (PAE UFR90; with Example 1 at 8 μg/ml): <0.031 µg/mL
MIC ATB combined with Example 7 @8 μgml (PAE UFR90; with Example 7 at 8 μg/ml): >32 µg/mL
MIC ATB combined with Example 11 @8 μg/ml (PAE UFR90; with Example 11 at 8 μg/ml): 32 µg/mL
MIC ATB combined with Example 12 @8 μg/ml (PAE UFR90): >32 µg/mL
MIC ATB combined with Example 14 @8 μg/ml (PAE UFR90): >32 µg/mL
MIC ATB combined with Example 16 @4 μg/ml (PAE UFR90): >32 µg/mL
MIC ATB combined with Example 1 @8 μg/ml (PAE UFR48; with Example 1 @8 μg/ml): <0.031 µg/mL
MIC ATB combined with Example 1 @8 μg/ml (PAE UFR48; with Example 1 at 8 μg/ml): <0.031 µg/mL
MIC ATB combined with Example 7 @8 μgml (PAE UFR48; with Example 7 at 8 μg/ml): >32 µg/mL
MIC ATB combined with Example 11 @8 μg/ml (PAE UFR48; with Example 11 at 8 μg/ml): >32 µg/mL
MIC ATB combined with Example 12 @8 μg/ml (PAE UFR48): >32 µg/mL
MIC ATB combined with Example 15 @4 μgml (PAE UFR48; with Example 15 at 4 μg/ml): >32 µg/mL
MIC ATB combined with Example 16 @4 μg/ml (PAE UFR48): >32 µg/mL
MIC ATB combined with Example 1 @8 μg/ml (PAE 105250; with Example 1 @8 μg/ml): <0.031 µg/mL
MIC ATB combined with Example 1 @8 μg/ml (PAE 105250; with Example 1 at 8 μg/ml): <0.031 µg/mL
MIC ATB combined with Example 11 @8 μg/ml (PAE 105250; with Example 11 at 8 μg/ml): 32 µg/mL
MIC ATB combined with Example 12 @8 μg/ml (PAE 105250): >32 µg/mL
MIC ATB combined with Example 14 @8 μg/ml (PAE 105250): >32 µg/mL
MIC ATB combined with Example 15 @4 μgml (PAE 105250; with Example 15 at 4 μg/ml): 32 µg/mL
MIC ATB combined with Example 16 @4 μg/ml (PAE 105250): >32 µg/mL
MIC ATB combined with Example 7 @8 μgml (SPN 49619): 0.063 µg/mL
MIC ATB combined with Example 9 @4 μg/ml (SPN 49619; with Example 9 @4 μg/ml): <=0.031 μg/mL
MIC ATB combined with Example 9 @4 μg/ml (SPN 49619; with Example 9 at 4 μg/ml): <=0.031 μg/mL
MIC ATB combined with Example 11 @8 μg/ml (SPN 49619): <=0.031 μg/mL
MIC ATB combined with Example 13 @8 μg/ml (SPN 49619): <=0.031 μg/mL
MIC ATB combined with Example 15 @4 μgml (SPN 49619): <=0.031 μg/mL
MIC ATB alone (SAU 29213): 8 µg/mL
MIC ATB combined with Example 1 @8 μg/ml (SAU 29213; with Example 1 @8 μg/ml): 4 µg/mL
MIC ATB combined with Example 1 @8 μg/ml (SAU 29213; with Example 1 at 8 μg/ml): 4 µg/mL
MIC ATB combined with Example 7 @8 μgml (SAU 29213): 2 µg/mL
MIC ATB combined with Example 11 @8 μg/ml (SAU 29213): <=0.031 μg/mL
MIC ATB combined with Example 13 @8 μg/ml (SAU 29213): 4 µg/mL
MIC ATB combined with Example 1 @8 μg/ml (ECL P99; with Example 1 @8 μg/ml): <0.031 µg/mL
MIC ATB combined with Example 1 @8 μg/ml (ECL P99; with Example 1 at 8 μg/ml): <0.031 µg/mL
MIC ATB combined with Example 7 @8 μgml (ECL P99; with Example 7 at 8 μg/ml): 2 µg/mL
MIC ATB combined with Example 13 @8 μg/ml (ECL P99; with Example 13 at 8 μg/ml): 1 µg/mL

O=C(N[C@H](CO)[C@H](O)c1ccc([N+](=O)[O-])cc1)C(Cl)Cl [CM]
MIC ATB alone (ECO 190317; antibiotic alone): 8 µg/mL
MIC ATB combined with Example 1 @8 μg/ml (ECO 190317; with Example 1 @8 μg/ml): <0.031 µg/mL
MIC ATB combined with Example 1 @8 μg/ml (ECO 190317; with Example 1 at 8 μg/ml): <0.031 µg/mL
MIC ATB combined with Example 7 @8 μgml (ECO 190317; with Example 7 at 8 μg/ml): <0.031 µg/mL
MIC ATB combined with Example 13 @8 μg/ml (ECO 190317): <0.031 µg/mL
MIC ATB alone (ECO UFR39; antibiotic alone): 64 µg/mL
MIC ATB combined with Example 1 @8 μg/ml (ECO UFR39; with Example 1 @8 μg/ml): <0.031 µg/mL
MIC ATB combined with Example 1 @8 μg/ml (ECO UFR39; with Example 1 at 8 μg/ml): <0.031 µg/mL
MIC ATB combined with Example 7 @8 μgml (ECO UFR39; with Example 7 at 8 μg/ml): <0.031 µg/mL
MIC ATB combined with Example 13 @8 μg/ml (ECO UFR39): <=0.031 μg/mL
MIC ATB alone (PAE UFR90; antibiotic alone): >1024 µg/mL
MIC ATB combined with Example 1 @8 μg/ml (PAE UFR90; with Example 1 @8 μg/ml): <0.031 µg/mL
MIC ATB combined with Example 1 @8 μg/ml (PAE UFR90; with Example 1 at 8 μg/ml): <0.031 µg/mL
MIC ATB combined with Example 12 @8 μg/ml (PAE UFR90): >32 µg/mL
MIC ATB combined with Example 14 @8 μg/ml (PAE UFR90): >32 µg/mL
MIC ATB combined with Example 16 @4 μg/ml (PAE UFR90): >32 µg/mL
MIC ATB alone (PAE UFR48; antibiotic alone): 512 µg/mL
MIC ATB combined with Example 1 @8 μg/ml (PAE UFR48; with Example 1 @8 μg/ml): <0.031 µg/mL
MIC ATB combined with Example 1 @8 μg/ml (PAE UFR48; with Example 1 at 8 μg/ml): <0.031 µg/mL
MIC ATB combined with Example 12 @8 μg/ml (PAE UFR48): >32 µg/mL
MIC ATB combined with Example 14 @8 μg/ml (PAE UFR48; with Example 14 at 8 μg/ml): >32 µg/mL
MIC ATB combined with Example 16 @4 μg/ml (PAE UFR48): >32 µg/mL
MIC ATB combined with Example 12 @8 μg/ml (PAE 105250): >32 µg/mL
MIC ATB combined with Example 14 @8 μg/ml (PAE 105250): >32 µg/mL
MIC ATB combined with Example 16 @4 μg/ml (PAE 105250): >32 µg/mL
MIC ATB alone (SPN 49619; antibiotic alone): 4 µg/mL
MIC ATB combined with Example 1 @8 μg/ml (SPN 49619; with Example 1 @8 μg/ml): 4 µg/mL
MIC ATB combined with Example 1 @8 μg/ml (SPN 49619; with Example 1 at 8 μg/ml): 4 µg/mL
MIC ATB combined with Example 7 @8 μgml (SPN 49619): 2 µg/mL
MIC ATB combined with Example 11 @8 μg/ml (SPN 49619): 2 µg/mL
MIC ATB combined with Example 13 @8 μg/ml (SPN 49619): 2 µg/mL
MIC ATB combined with Example 15 @4 μgml (SPN 49619): 2 µg/mL
MIC ATB combined with Example 16 @4 μg/ml (SPN 49619; with Example 16 at 4 μg/ml): <=0.031 μg/mL
MIC ATB alone (SAU 29213): 16 µg/mL
MIC ATB combined with Example 1 @8 μg/ml (SAU 29213; with Example 1 @8 μg/ml): 16 µg/mL
MIC ATB combined with Example 1 @8 μg/ml (SAU 29213; with Example 1 at 8 μg/ml): 16 µg/mL
MIC ATB combined with Example 7 @8 μgml (SAU 29213): 4 µg/mL
MIC ATB combined with Example 11 @8 μg/ml (SAU 29213): <=0.031 μg/mL
MIC ATB combined with Example 13 @8 μg/ml (SAU 29213): 4 µg/mL
MIC ATB combined with Example 15 @4 μgml (SAU 29213; with Example 15 at 4 μg/ml): 0.063 µg/mL
MIC ATB alone (ECL P99; antibiotic alone): 512 µg/mL
MIC ATB combined with Example 1 @8 μg/ml (ECL P99; with Example 1 @8 μg/ml): <0.031 µg/mL
MIC ATB combined with Example 1 @8 μg/ml (ECL P99; with Example 1 at 8 μg/ml): <0.031 µg/mL
